Source: patent publication US6361758B1, “Cosolvent formulations” (Abbott Laboratories, priority 1998, dated 2002)

Tests used:
[1] = Solubility of paracalcin in a cosolvent system; format: physicochemical; conditions: 25° C.
Description: An adequate amount of paracalcin was weighed and added to 10 ml of cosolvent contained in a 10 ml stoppered glass test tube. Two samples were prepared for each cosolvent composition. The test tubes containing samples were shaken in a 25° C. reciprocal shaking water bath at 100 rpm. Upon complete dissolution, an aliquot was filtered through a 0.45 micron syringe filter and the filtrate diluted 1:1 with 50% methanol. The resulting diluted material was measured for the content of paracalcin.

[2] = Stability of paracalcin in a cosolvent formulation; format: physicochemical; conditions: 5 μg/ml in 20% ethanol/30% propylene glycol/50% water
Description: Samples of paracalcin (5 μg/ml) in 20% ethanol/30% propylene glycol/50% water were prepared for stability testing. In an appropriate vessel, water for injection to approximately 30% of final volume is added. Propylene glycol is added to the vessel with mixing. In a separate container, the specified amount of paracalcin is dissolved in a portion of the ethanol (190 proof non-beverage), which is obtained from the total volume of ethanol specified for the batch, and added to the vessel with mixing. An additional aliquot of the batch ethanol is used to rinse the container and the rinsing solution is added to the vessel with mixing. The remaining alcohol is added to the vessel with mixing. Q.s. with water for injection to final volume and mix for approximately 30 minutes. The solution is filtered through a 0.45 micron membrane and dispensed into ampuls. Each ampul is flame sealed and autoclaved to F016.
One set of ampuls are tested (T=0) for percent paracalcin remaining in solution and served as control (i.e., 100% remaining). A second set of ampuls are stored at 40° C. and tested at 1, 2, and 3 months. A final set are stored at 30° C. and tested at 1, 2, 3, 6, 9, 12, 18, and 24 months. The results are shown in Table 2 as paracalcin remaining as a percent of control (T=0). Each time point represents 1 to 5 data points.

[3] = test system: Staphylococcus aureus, Escherichia coli, Pseudomonas aeruginosa, Candida albicans, Aspergillus niger; assay: USP 23 preservative effectiveness test; format: cell-based; conditions: added to the 20% ethanol/30% PG formulation; data not shown
Excerpt: Solutions of 20% ethanol, 30% propylene glycol, 20% ethanol/30% PG, 30ethanol/20% PG, and 40% ethanol/10% PG were passed through a 0.45 micro filter and tested by the USP 23 preservative effectiveness test as described in United States Pharmacopoeia 23-NF 18, 1995 Ed., Chapter 51, page 1681, which is incorporated herein by reference. Briefly, this involves inoculating the test solution with 10^5 to 10^6 test organisms per milliliter and then determining the number of surviving organisms after 7, 14, 21, and 28 days incubation at 20-25° C. using standard microbiological methods. Day 0 data is not required by USP 23 but was included in this study. A filtration and wash method was used to remove the inactivating agents for purposes of recovering the microorganisms, but other equivalent agents can also be validated for use. The USP test organisms include the bacteria Staphylococcus aureus, Escherichia coli, and Pseudomonas aeruginosa, a yeast (Candida albicans), and a mold (Aspergillus niger). […] The yeast and mold must not increase from the initial inoculum level. The initial inoculum level can either be calculated by knowing the stock culture concentration or by using a buffer control instead of the test solution.

Compound: C[C@H](/C=C/[C@H](C)C(C)(C)O)[C@H]1CC[C@H]2/C(=C/C=C3C[C@@H](O)C[C@H](O)C3)CCC[C@]12C [paracalcin, 19-nor-1α,3β,25-trihydroxy-9,10-secoergosta-5,7(E),22(E)-triene]
- Paracalcin concentration in cosolvent (solubility) ([1]; Ethanol 0.00, Propylene glycol 0.302, Water 0.698): 0.58 µg/mL
- Paracalcin concentration in cosolvent (solubility) ([1]; Ethanol 0.00, Propylene glycol 0.506, Water 0.494): 14.21 µg/mL
- Paracalcin concentration in cosolvent (solubility) ([1]; Ethanol 0.100, Propylene glycol 0.257, Water 0.643): 2.88 µg/mL
- Paracalcin concentration in cosolvent (solubility) ([1]; Ethanol 0.199, Propylene glycol 0.207, Water 0.594): 15.94 µg/mL
- Paracalcin concentration in cosolvent (solubility) ([1]; Ethanol 0.201, Propylene glycol 0.308, Water 0.491): 72.90 µg/mL
- Paracalcin concentration in cosolvent (solubility) ([1]; Ethanol 0.299, Propylene glycol 0.00, Water 0.701): 6.82 µg/mL
- Paracalcin concentration in cosolvent (solubility) ([1]; Ethanol 0.347, Propylene glycol 0.102, Water 0.551): 119.37 µg/mL
- Paracalcin concentration in cosolvent (solubility) ([1]; Ethanol 0.498, Propylene glycol 0.00, Water 0.502): 601.63 µg/mL
- paracalcin remaining as a percent of control (T=0) ([2]; 30° C., 0 months (Initial), autoclaved ampuls): 100% of control
- paracalcin remaining as a percent of control (T=0) ([2]; 30° C., 1 month): 96% of control
- paracalcin remaining as a percent of control (T=0) ([2]; 30° C., 2 months): 96% of control
- paracalcin remaining as a percent of control (T=0) ([2]; 30° C., 3 months): 97% of control
- paracalcin remaining as a percent of control (T=0) ([2]; 30° C., 6 months): 96% of control
- paracalcin remaining as a percent of control (T=0) ([2]; 30° C., 9 months): 97% of control
- paracalcin remaining as a percent of control (T=0) ([2]; 30° C., 12 months): 100% of control
- paracalcin remaining as a percent of control (T=0) ([2]; 30° C., 18 months): 97% of control
- paracalcin remaining as a percent of control (T=0) ([2]; 30° C., 24 months): 96% of control
- paracalcin remaining as a percent of control (T=0) ([2]; 40° C., 0 months (Initial), autoclaved ampuls): 100% of control
- paracalcin remaining as a percent of control (T=0) ([2]; 40° C., 1 month): 96% of control
- paracalcin remaining as a percent of control (T=0) ([2]; 40° C., 2 months): 96% of control
- paracalcin remaining as a percent of control (T=0) ([2]; 40° C., 3 months): 98% of control
- effect of addition of paracalcin on the preservative effect of the formulation [3]: no effect
